{"source": "ChEMBL document CHEMBL5137036", "about": "“Design and synthesis of highly TRAIL expression HDAC inhibitors based on ONC201 to promote apoptosis of colorectal cancer” (Eur J Med Chem, 2022)", "key": {"[1]": {"system": "HCT-116", "experiment": "Upregulation of TRAIL mRNA expression in human HCT-116 cells at 0.25 uM incubated for 12 hrs by RT-PCR analysis", "format": "functional, cell-based"}, "[2]": {"system": "HCT-116", "experiment": "Upregulation of DR5 mRNA expression in human HCT-116 cells at 0.25 uM incubated for 12 hrs by RT-PCR analysis", "format": "functional, cell-based"}, "[3]": {"system": "MV4-11", "experiment": "Antiproliferative activity against human MV4-11 cells assessed as inhibition of cell growth incubated for 72 hrs by luminescence based analysis", "format": "functional", "conditions": "MV4-11, 72 h"}, "[4]": {"system": "HepG2", "experiment": "Antiproliferative activity against human HepG2 cells assessed as inhibition of cell growth incubated for 72 hrs by luminescence based analysis", "format": "functional", "conditions": "HepG2, 72 h"}, "[5]": {"system": "HCT-116", "experiment": "Antiproliferative activity against human HCT-116 cells assessed as inhibition of cell growth incubated for 72 hrs by luminescence based analysis", "format": "functional", "conditions": "HCT-116, 72 h"}, "[6]": {"biological_target": "T1, Histone deacetylase 1 (Homo sapiens, UniProt Q13547)", "T1 sequence (Q13547 whole entry)": "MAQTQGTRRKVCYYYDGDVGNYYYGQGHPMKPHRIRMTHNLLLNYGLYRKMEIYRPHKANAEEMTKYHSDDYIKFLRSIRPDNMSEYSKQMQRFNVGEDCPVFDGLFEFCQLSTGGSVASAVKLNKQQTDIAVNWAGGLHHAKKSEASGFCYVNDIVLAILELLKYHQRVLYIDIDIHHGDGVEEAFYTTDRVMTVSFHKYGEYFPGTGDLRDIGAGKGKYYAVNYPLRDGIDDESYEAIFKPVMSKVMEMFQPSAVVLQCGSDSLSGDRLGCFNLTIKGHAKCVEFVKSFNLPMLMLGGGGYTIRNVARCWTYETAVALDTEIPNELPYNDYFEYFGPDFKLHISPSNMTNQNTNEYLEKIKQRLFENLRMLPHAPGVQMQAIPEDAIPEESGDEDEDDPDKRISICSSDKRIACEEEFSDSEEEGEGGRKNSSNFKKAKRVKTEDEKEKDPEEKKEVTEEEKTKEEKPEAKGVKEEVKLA", "experiment": "Inhibition of HDAC1 in human HCT-116 cells assessed as increase in DR5 protein expression at 0.5 uM incubated for 12 hrs by Western blot analysis", "format": "cell-based"}, "[7]": {"biological_target": "T1, Histone deacetylase 1", "experiment": "Inhibition of HDAC1 in human HCT-116 cells assessed as increase in Ac-H4 acetylation at 0.5 uM incubated for 12 hrs by Western blot analysis", "format": "cell-based"}, "[8]": {"system": "HCT-116", "experiment": "Induction of apoptosis in human HCT-116 cells assessed as increase in caspase-8 protein expression incubated for 12 hrs by Western blot analysis", "format": "functional, cell-based", "conditions": "dose 0.125-0.5 µM, DDE = dose-dependent effect"}, "[9]": {"system": "HCT-116", "experiment": "Induction of apoptosis in human HCT-116 cells assessed as increase in Bax protein expression incubated for 12 hrs by Western blot analysis", "format": "functional, cell-based", "conditions": "dose 0.125-0.5 µM, DDE = dose-dependent effect"}, "[10]": {"biological_target": "Histone deacetylase 2 (Homo sapiens, UniProt Q92769)", "sequence (Q92769 whole entry)": "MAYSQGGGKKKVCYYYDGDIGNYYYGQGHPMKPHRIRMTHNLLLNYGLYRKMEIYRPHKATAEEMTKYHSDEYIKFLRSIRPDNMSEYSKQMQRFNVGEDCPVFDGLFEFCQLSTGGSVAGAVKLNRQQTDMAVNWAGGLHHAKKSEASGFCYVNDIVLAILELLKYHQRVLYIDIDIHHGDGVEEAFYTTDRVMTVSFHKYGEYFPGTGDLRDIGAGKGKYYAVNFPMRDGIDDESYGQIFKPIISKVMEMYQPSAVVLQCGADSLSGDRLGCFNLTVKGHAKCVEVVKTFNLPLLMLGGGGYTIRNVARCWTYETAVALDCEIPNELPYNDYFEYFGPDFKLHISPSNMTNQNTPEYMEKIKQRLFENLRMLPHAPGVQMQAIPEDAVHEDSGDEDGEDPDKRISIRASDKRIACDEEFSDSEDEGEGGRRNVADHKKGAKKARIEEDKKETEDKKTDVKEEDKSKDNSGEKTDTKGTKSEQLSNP", "experiment": "Inhibition of human HDAC2 using RHKKAc fluorogenic peptide as substrate preincubated for 10 mins followed by substrate addition by fluorescence based analysis"}, "[11]": {"biological_target": "Histone deacetylase 4 (Homo sapiens, UniProt P56524)", "sequence (P56524 whole entry)": "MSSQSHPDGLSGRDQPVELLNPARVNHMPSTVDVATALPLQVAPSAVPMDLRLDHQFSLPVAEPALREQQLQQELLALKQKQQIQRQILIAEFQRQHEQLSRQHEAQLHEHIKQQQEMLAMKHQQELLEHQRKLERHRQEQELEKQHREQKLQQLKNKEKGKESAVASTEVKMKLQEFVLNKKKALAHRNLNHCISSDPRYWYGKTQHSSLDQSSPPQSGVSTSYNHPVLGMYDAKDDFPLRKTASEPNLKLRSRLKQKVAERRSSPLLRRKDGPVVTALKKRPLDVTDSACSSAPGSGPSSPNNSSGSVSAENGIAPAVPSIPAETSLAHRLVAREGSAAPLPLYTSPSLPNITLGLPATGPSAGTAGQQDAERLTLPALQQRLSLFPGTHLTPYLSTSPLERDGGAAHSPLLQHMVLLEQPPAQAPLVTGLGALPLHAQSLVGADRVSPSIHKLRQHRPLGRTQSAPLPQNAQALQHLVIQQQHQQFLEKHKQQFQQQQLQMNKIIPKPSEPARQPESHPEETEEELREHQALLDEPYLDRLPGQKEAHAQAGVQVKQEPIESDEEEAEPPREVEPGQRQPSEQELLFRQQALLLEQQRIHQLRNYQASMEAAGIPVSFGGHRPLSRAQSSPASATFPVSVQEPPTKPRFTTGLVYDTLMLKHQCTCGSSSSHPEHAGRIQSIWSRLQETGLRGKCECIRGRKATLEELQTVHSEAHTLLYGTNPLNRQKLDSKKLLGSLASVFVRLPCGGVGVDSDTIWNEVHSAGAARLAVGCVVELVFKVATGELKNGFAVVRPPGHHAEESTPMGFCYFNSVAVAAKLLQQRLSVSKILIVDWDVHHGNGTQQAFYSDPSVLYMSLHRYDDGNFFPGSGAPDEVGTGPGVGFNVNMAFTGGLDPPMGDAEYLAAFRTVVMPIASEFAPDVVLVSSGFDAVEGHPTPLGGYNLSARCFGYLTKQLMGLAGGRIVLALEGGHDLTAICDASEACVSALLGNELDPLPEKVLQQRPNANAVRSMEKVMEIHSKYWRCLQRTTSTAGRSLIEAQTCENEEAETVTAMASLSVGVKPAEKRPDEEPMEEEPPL", "experiment": "Inhibition of human HDAC4 using Boc-Lys(trifluoroacetyl)-AMC as fluorogenic substrate preincubated for 10 mins followed by substrate addition by fluorescence based analysis"}, "[12]": {"biological_target": "T2, Histone deacetylase 11 (Homo sapiens, UniProt Q96DB2)", "T2 sequence (Q96DB2 whole entry)": "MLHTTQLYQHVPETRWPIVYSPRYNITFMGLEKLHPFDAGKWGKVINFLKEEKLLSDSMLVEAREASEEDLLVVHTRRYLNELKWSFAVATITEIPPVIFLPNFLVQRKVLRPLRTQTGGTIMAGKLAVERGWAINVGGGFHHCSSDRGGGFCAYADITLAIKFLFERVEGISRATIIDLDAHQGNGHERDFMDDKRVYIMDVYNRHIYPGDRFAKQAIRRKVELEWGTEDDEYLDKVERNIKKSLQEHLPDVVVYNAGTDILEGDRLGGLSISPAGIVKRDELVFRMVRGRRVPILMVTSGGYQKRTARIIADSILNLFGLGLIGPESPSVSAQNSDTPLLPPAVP", "experiment": "Inhibition of human HDAC11 using Boc-Lys(trifluoroacetyl)-AMC as fluorogenic substrate preincubated for 10 mins followed by substrate addition by fluorescence based analysis"}, "[13]": {"system": "HCT-116", "experiment": "Induction of apoptosis in human HCT-116 cells assessed as viable cells at 0.125 uM incubated for 24 hrs by AnnexinV-FITC/PI staining based flow cytometry (reference value: 93.64%)", "format": "functional", "conditions": "read-out: Activity"}, "[14]": {"system": "HCT-116", "experiment": "Induction of apoptosis in human HCT-116 cells assessed as early apoptotic cells at 0.125 uM incubated for 24 hrs by AnnexinV-FITC/PI staining based flow cytometry (reference value: 0.93 %)", "format": "functional"}, "[15]": {"system": "HCT-116", "experiment": "Induction of apoptosis in human HCT-116 cells assessed as late apoptotic cells at 0.125 uM incubated for 24 hrs by AnnexinV-FITC/PI staining based flow cytometry (reference value: 0.82 %)", "format": "functional"}, "[16]": {"system": "HCT-116", "experiment": "Induction of apoptosis in human HCT-116 cells assessed as dead cells at 0.125 uM incubated for 24 hrs by AnnexinV-FITC/PI staining based flow cytometry (reference value: 4.62 %)", "format": "functional"}, "[17]": {"system": "HCT-116", "experiment": "Induction of apoptosis in human HCT-116 cells assessed as late apoptotic cells at 0.25 uM incubated for 24 hrs by AnnexinV-FITC/PI staining based flow cytometry (reference value: 0.82 %)", "format": "functional"}, "[18]": {"system": "HCT-116", "experiment": "Induction of apoptosis in human HCT-116 cells assessed as dead cells at 0.25 uM incubated for 24 hrs by AnnexinV-FITC/PI staining based flow cytometry (reference value: 4.62 %)", "format": "functional"}, "[19]": {"system": "HCT-116", "experiment": "Induction of apoptosis in human HCT-116 cells assessed as dead cells at 0.5 uM incubated for 24 hrs by AnnexinV-FITC/PI staining based flow cytometry (reference value: 4.62 %)", "format": "functional"}, "[20]": {"system": "HCT-116", "experiment": "Antitumor activity against human HCT-116 cells xenografted in BALB/c mouse assessed as reduction in tumor growth at 12.5 mg/kg, po qd administered for 3 weeks and measured every 3 days by vernier caliper analysis", "format": "functional, organism-based"}, "[21]": {"system": "HCT-116", "experiment": "Antitumor activity against human HCT-116 cells xenografted in BALB/c mouse assessed as reduction in tumor growth at 50 mg/kg, po qd administered for 3 weeks and measured every 3 days by vernier caliper analysis", "format": "functional, organism-based"}, "[22]": {"system": "HCT-116", "experiment": "Antitumor activity against human HCT-116 cells xenografted in BALB/c mouse assessed as reduction in tumor growth by measuring T/C ratio at 25 mg/kg, po qd administered for 3 weeks and measured every 3 days by vernier caliper analysis", "format": "functional"}, "[23]": {"experiment": "Toxicity in BALB/c mouse xenografted with human HCT-116 cells assessed as morphological changes in heart at 12.5 to 25 mg/kg, po qd administered for 21 days by H & E staining based microscopic analysis", "format": "organism-based", "conditions": "in vivo, 504 h, dose 12.5-25 mg/kg, time 21 day"}, "[24]": {"experiment": "Toxicity in BALB/c mouse xenografted with human HCT-116 cells assessed as morphological changes in liver at 12.5 to 25 mg/kg, po qd administered for 21 days by H & E staining based microscopic analysis", "format": "organism-based", "conditions": "in vivo, 504 h, dose 12.5-25 mg/kg, time 21 day"}, "[25]": {"experiment": "Toxicity in BALB/c mouse xenografted with human HCT-116 cells assessed as morphological changes in spleen at 12.5 to 25 mg/kg, po qd administered for 21 days by H & E staining based microscopic analysis", "format": "organism-based", "conditions": "in vivo, 504 h, dose 12.5-25 mg/kg, time 21 day"}, "[26]": {"experiment": "Toxicity in BALB/c mouse xenografted with human HCT-116 cells assessed as morphological changes in lung at 12.5 to 25 mg/kg, po qd administered for 21 days by H & E staining based microscopic analysis", "format": "organism-based", "conditions": "in vivo, 504 h, dose 12.5-25 mg/kg, time 21 day"}, "[27]": {"system": "HCT-116", "experiment": "Effect on HDAC1 protein expression in human HCT-116 cells incubated for 12 hrs by Western blot analysis", "format": "functional, cell-based", "conditions": "dose 0.125-0.5 µM, DDE = dose-dependent effect"}, "[28]": {"system": "HCT-116", "experiment": "Effect on DR5 protein expression in human HCT-116 cells incubated for 12 hrs by Western blot analysis", "format": "functional, cell-based", "conditions": "dose 0.125-0.5 µM, DDE = dose-dependent effect"}, "[29]": {"system": "HCT-116", "experiment": "Effect on TRAIL protein expression in human HCT-116 cells incubated for 12 hrs by Western blot analysis", "format": "functional, cell-based", "conditions": "dose 0.125-0.5 µM, DDE = dose-dependent effect"}, "[30]": {"system": "HCT-116", "experiment": "Effect on ac-H4 protein expression in human HCT-116 cells incubated for 12 hrs by Western blot analysis", "format": "functional, cell-based", "conditions": "dose 0.125-0.5 µM, DDE = dose-dependent effect"}}, "note": "Calls of active or inactive are those of the source. The calls are words filed in the database; no cut-off is given here.", "data": [{"smiles": "COc1ccccc1CN1C(=O)C2=C(CCN(Cc3ccc(C(=O)Nc4ccccc4N)cc3)C2)N2CCN=C12", "values": [{"measurement": "Activity", "setting": "[1]", "result": "Active"}, {"measurement": "Activity", "setting": "[2]", "result": "Active"}, {"measurement": "IC50", "setting": "[3]", "result": 0.563, "unit": "µM"}, {"measurement": "IC50", "setting": "[4]", "result": 2.67, "unit": "µM"}, {"measurement": "IC50", "setting": "[5]", "result": 0.653, "unit": "µM"}, {"measurement": "inhibition", "setting": "[6]", "result": "Active"}, {"measurement": "inhibition", "setting": "[7]", "result": "Active"}, {"measurement": "Activity", "setting": "[8]", "result": "Dde"}, {"measurement": "Activity", "setting": "[9]", "result": "Dde"}, {"measurement": "IC50", "setting": "[10]", "result": 0.346, "unit": "µM"}, {"measurement": "IC50", "setting": "[11]", "result": "> 10", "unit": "µM"}, {"measurement": "IC50", "setting": "[12]", "result": "> 10", "unit": "µM"}, {"measurement": "viability at 0.125 µM", "setting": "[13]", "result": 91.5, "unit": "%"}, {"measurement": "Activity", "setting": "[14]", "result": 0.87, "unit": "%"}, {"measurement": "Activity", "setting": "[15]", "result": 1.35, "unit": "%"}, {"measurement": "Activity", "setting": "[16]", "result": 6.33, "unit": "%"}, {"measurement": "Activity", "setting": "[17]", "result": 1.82, "unit": "%"}, {"measurement": "Activity", "setting": "[18]", "result": 4.06, "unit": "%"}, {"measurement": "Activity", "setting": "[19]", "result": 9.59, "unit": "%"}, {"measurement": "Activity", "setting": "[20]", "result": "Active"}, {"measurement": "Activity", "setting": "[21]", "result": "Active"}, {"measurement": "T/C", "setting": "[22]", "result": 0.33}, {"measurement": "Activity", "setting": "[23]", "result": "Non-Toxic"}, {"measurement": "Activity", "setting": "[24]", "result": "Non-Toxic"}, {"measurement": "Activity", "setting": "[25]", "result": "Non-Toxic"}, {"measurement": "Activity", "setting": "[26]", "result": "Non-Toxic"}, {"measurement": "Activity", "setting": "[27]", "result": "Dde"}, {"measurement": "Activity", "setting": "[28]", "result": "Dde"}, {"measurement": "Activity", "setting": "[29]", "result": "Dde"}, {"measurement": "Activity", "setting": "[30]", "result": "Dde"}]}]}
